According to ChEMBL document CHEMBL1149100, “New 2,4-diamino-5-(2',5'-substituted benzyl)pyrimidines as potential drugs against opportunistic infections of AIDS and other immune disorders. Synthesis and species-dependent antifolate activity” (J Med Chem, 2004):
Values after ≈ are worked out from the molar mass of the structure shown.

Columns and labels:
[1] = target: T1, Dihydrofolate reductase (Rattus norvegicus, UniProt Q920D2)
T1 sequence (Q920D2 whole entry): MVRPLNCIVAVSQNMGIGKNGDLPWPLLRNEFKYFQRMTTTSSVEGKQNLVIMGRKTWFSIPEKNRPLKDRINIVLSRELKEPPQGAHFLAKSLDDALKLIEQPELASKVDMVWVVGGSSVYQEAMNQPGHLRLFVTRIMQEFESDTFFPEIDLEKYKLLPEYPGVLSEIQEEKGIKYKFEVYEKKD
Description: Inhibitory concentration against dihydrofolate reductase of rat liver

[2] = target: T2, Bifunctional dihydrofolate reductase-thymidylate synthase (Toxoplasma gondii, UniProt Q07422)
T2 sequence (Q07422 whole entry): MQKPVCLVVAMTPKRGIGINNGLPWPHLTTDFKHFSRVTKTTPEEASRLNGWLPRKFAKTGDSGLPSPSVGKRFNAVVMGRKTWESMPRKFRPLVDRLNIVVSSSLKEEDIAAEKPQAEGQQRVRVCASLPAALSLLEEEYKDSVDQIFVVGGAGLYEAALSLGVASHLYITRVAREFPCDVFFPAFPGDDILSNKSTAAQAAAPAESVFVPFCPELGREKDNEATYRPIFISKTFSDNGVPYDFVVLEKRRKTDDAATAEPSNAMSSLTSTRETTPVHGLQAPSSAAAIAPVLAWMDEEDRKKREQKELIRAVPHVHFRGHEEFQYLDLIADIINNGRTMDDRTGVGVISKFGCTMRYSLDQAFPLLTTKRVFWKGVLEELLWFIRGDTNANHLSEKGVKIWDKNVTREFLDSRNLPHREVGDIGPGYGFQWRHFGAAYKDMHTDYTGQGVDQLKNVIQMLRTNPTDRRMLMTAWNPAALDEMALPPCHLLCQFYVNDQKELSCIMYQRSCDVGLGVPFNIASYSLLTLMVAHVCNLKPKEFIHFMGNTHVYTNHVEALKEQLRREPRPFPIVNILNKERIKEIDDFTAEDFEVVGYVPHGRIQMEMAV

[3] = target: T3, Dihydrofolate reductase (Pneumocystis carinii, UniProt P16184)
T3 sequence (P16184 whole entry): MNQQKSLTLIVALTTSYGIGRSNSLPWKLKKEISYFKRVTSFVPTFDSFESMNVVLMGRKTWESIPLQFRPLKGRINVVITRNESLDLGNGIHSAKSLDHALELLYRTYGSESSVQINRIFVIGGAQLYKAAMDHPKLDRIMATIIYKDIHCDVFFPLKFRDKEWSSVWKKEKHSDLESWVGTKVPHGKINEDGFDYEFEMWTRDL
Description: Inhibitory concentration against dihydrofolate reductace enzyme of Pneumocystis carinii

[4] = target: T4, Dihydrofolate reductase (Mycobacterium avium, UniProt O30463)
T4 sequence (O30463 whole entry): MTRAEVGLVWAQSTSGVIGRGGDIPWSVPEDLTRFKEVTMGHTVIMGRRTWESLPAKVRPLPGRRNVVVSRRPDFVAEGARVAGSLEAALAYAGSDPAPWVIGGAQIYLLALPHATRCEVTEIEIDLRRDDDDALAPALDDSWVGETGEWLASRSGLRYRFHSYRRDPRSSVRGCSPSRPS
Description: Inhibitory concentration against dihydrofolate reductase of Mycobacterium avium

[5] = system: Mycobacterium avium; test: Minimum inhibitory concentration required against Mycobacterium avium isolate from patient number MAC101; type: functional
[6] = system: Mycobacterium avium; test: Minimum inhibitory concentration required against Mycobacterium avium isolate from patient number MAC16; type: functional
[7] = system: Mycobacterium avium; test: Minimum inhibitory concentration required against Mycobacterium avium isolate from patient number MAC100; type: functional
[8] = system: Mycobacterium avium; test: Minimum inhibitory concentration required against Mycobacterium avium isolate from patient number MAC109; type: functional
[9] = system: Mycobacterium avium; test: Minimum inhibitory concentration required against Mycobacterium avium isolate from patient number MAC108; type: functional
[10] = system: Mycobacterium avium; test: Minimum inhibitory concentration required for 90 percent inhibition of Mycobacterium avium isolate; type: functional
[11] = system: Mycobacterium avium; test: Minimum inhibitory concentration required for 50 percent inhibition of Mycobacterium avium isolate; type: functional
[12] = system: Mycobacterium avium; test: Concentration of compound required against Mycobacterium avium; Range is 4-32; type: functional, organism-based
[13] = system: Mycobacterium avium; test: Concentration of compound required against Mycobacterium avium; Range is 2-32; type: functional, organism-based
[14] = system: Mycobacterium avium; test: Concentration of compound required against Mycobacterium avium; Range is 2-16 ug/mL; type: functional, organism-based
[15] = system: Mycobacterium avium; test: Concentration of compound required against Mycobacterium aviumRange is 2-32; type: functional, organism-based
[16] = system: Mycobacterium avium; test: Minimum inhibitory concentration required against Mycobacterium avium isolate from patient number MAC116; type: functional
[17] = system: Mycobacterium avium; test: microbe, parasite or virus in culture

SMILES	IC50 [4]	MIC [5]	MIC [6]	MIC [7]	MIC [8]	MIC [9]	MIC90 [10]	MIC50 [11]	other results
COc1ccc(CCCOc2ccccc2C(=O)O)cc1Cc1cnc(N)nc1N	310 nM	–	–	–	–	–	–	–	IC50 [1]: 25000 nM; IC50 [2]: 710 nM; IC50 [3]: 7800 nM
COc1ccc(CCCCCC(=O)O)cc1Cc1cnc(N)nc1N	–	16 µg/mL (≈ 46.5 µM)	32 µg/mL (≈ 92.9 µM)	32 µg/mL (≈ 92.9 µM)	32 µg/mL (≈ 92.9 µM)	> 32 µg/mL	–	–	–
COc1ccc(C#CCCC(=O)O)cc1Cc1cnc(N)nc1N	–	8 µg/mL (≈ 24.5 µM)	16 µg/mL (≈ 49 µM)	8 µg/mL (≈ 24.5 µM)	16 µg/mL (≈ 49 µM)	16 µg/mL (≈ 49 µM)	16 µg/mL (≈ 49 µM)	8 µg/mL (≈ 24.5 µM)	Concentration [12]: 32 µg/mL
COc1ccc(C#CCCCCC(=O)O)cc1Cc1cnc(N)nc1N	–	2 µg/mL (≈ 5.64 µM)	2 µg/mL (≈ 5.64 µM)	4 µg/mL (≈ 11.3 µM)	4 µg/mL (≈ 11.3 µM)	> 32 µg/mL	16 µg/mL (≈ 45.1 µM)	8 µg/mL (≈ 22.6 µM)	Concentration [13]: 32 µg/mL
COc1ccc(OCCCCCCCCC(=O)O)cc1Cc1cnc(N)nc1N	–	2 µg/mL (≈ 4.97 µM)	2 µg/mL (≈ 4.97 µM)	8 µg/mL (≈ 19.9 µM)	4 µg/mL (≈ 9.94 µM)	> 32 µg/mL	8 µg/mL (≈ 19.9 µM)	4 µg/mL (≈ 9.94 µM)	Concentration [14]: 16 µg/mL
COc1ccc(OCc2ccc(C(=O)O)cc2)cc1Cc1cnc(N)nc1N	–	> 32 µg/mL	> 32 µg/mL	> 32 µg/mL	> 32 µg/mL	> 32 µg/mL	–	–	–
COc1ccc(C#Cc2cccc(C(=O)O)c2)cc1Cc1cnc(N)nc1N	1.5 nM	> 64 µg/mL	> 64 µg/mL	> 64 µg/mL	> 64 µg/mL	> 64 µg/mL	–	–	IC50 [1]: 650 nM; IC50 [2]: 5.5 nM; IC50 [3]: 23 nM
COc1ccc(OCCCCCCC(=O)O)cc1Cc1cnc(N)nc1N	–	8 µg/mL (≈ 21.4 µM)	16 µg/mL (≈ 42.7 µM)	16 µg/mL (≈ 42.7 µM)	8 µg/mL (≈ 21.4 µM)	> 32 µg/mL	32 µg/mL (≈ 85.5 µM)	4 µg/mL (≈ 10.7 µM)	Concentration [15]: 32 µg/mL
COc1ccc(/C=C/COc2ccccc2C(=O)O)cc1Cc1cnc(N)nc1N	380 nM	–	–	–	–	–	–	–	IC50 [1]: 6400 nM; IC50 [2]: 2500 nM; IC50 [3]: 8600 nM
CCCCCCOc1ccc(OC)c(Cc2cnc(N)nc2N)c1	–	32 µg/mL (≈ 96.8 µM)	32 µg/mL (≈ 96.8 µM)	32 µg/mL (≈ 96.8 µM)	32 µg/mL (≈ 96.8 µM)	32 µg/mL (≈ 96.8 µM)	–	–	–
COc1ccc(C#CCOc2ccccc2C(=O)O)cc1Cc1cnc(N)nc1N	–	> 32 µg/mL	> 32 µg/mL	> 32 µg/mL	> 32 µg/mL	> 32 µg/mL	–	–	–
COc1ccc(OCCCCC(=O)O)cc1Cc1cnc(N)nc1N	–	16 µg/mL (≈ 46.2 µM)	16 µg/mL (≈ 46.2 µM)	16 µg/mL (≈ 46.2 µM)	16 µg/mL (≈ 46.2 µM)	> 32 µg/mL	32 µg/mL (≈ 92.4 µM)	16 µg/mL (≈ 46.2 µM)	–
COc1ccc(CCCCCCC(=O)O)cc1Cc1cnc(N)nc1N	–	32 µg/mL (≈ 89.3 µM)	16 µg/mL (≈ 44.6 µM)	> 32 µg/mL	32 µg/mL (≈ 89.3 µM)	> 32 µg/mL	–	–	–
COc1ccc(C#CCCCC(=O)O)cc1Cc1cnc(N)nc1N	–	4 µg/mL (≈ 11.8 µM)	8 µg/mL (≈ 23.5 µM)	8 µg/mL (≈ 23.5 µM)	16 µg/mL (≈ 47 µM)	32 µg/mL (≈ 94 µM)	16 µg/mL (≈ 47 µM)	8 µg/mL (≈ 23.5 µM)	Concentration [12]: 32 µg/mL
COc1ccc(CCc2ccc(C(=O)O)cc2)cc1Cc1cnc(N)nc1N	25 nM	–	–	–	–	–	–	–	IC50 [1]: 13000 nM; IC50 [2]: 1500 nM; IC50 [3]: 7100 nM
COc1ccc(C#CCOc2cccc(C(=O)O)c2)cc1Cc1cnc(N)nc1N	–	> 32 µg/mL	> 32 µg/mL	> 32 µg/mL	> 32 µg/mL	> 32 µg/mL	–	–	–
COc1ccc(C#Cc2ccccc2C(=O)O)cc1Cc1cnc(N)nc1N	100 nM	> 64 µg/mL	–	> 64 µg/mL	> 64 µg/mL	> 64 µg/mL	–	–	IC50 [1]: 25000 nM; MIC [16]: > 64 µg/mL; IC50 [2]: 1900 nM; IC50 [3]: 4100 nM
COc1ccc(CCCOc2cccc(C(=O)O)c2)cc1Cc1cnc(N)nc1N	25 nM	–	–	–	–	–	–	–	IC50 [1]: 4000 nM; IC50 [2]: 210 nM; IC50 [3]: 1100 nM
COc1cc(Cc2cnc3nc(N)nc(N)c3c2C)cc(OC)c1	0.64 nM	–	–	–	–	–	–	–	–
COc1ccc(OCCCCCC(=O)O)cc1Cc1cnc(N)nc1N	–	8 µg/mL (≈ 22.2 µM)	8 µg/mL (≈ 22.2 µM)	16 µg/mL (≈ 44.4 µM)	8 µg/mL (≈ 22.2 µM)	32 µg/mL (≈ 88.8 µM)	32 µg/mL (≈ 88.8 µM)	4 µg/mL (≈ 11.1 µM)	Concentration [12]: 32 µg/mL
COc1ccc(OCCCCCCCC(=O)O)cc1Cc1cnc(N)nc1N	–	4 µg/mL (≈ 10.3 µM)	2 µg/mL (≈ 5.15 µM)	8 µg/mL (≈ 20.6 µM)	2 µg/mL (≈ 5.15 µM)	32 µg/mL (≈ 82.4 µM)	8 µg/mL (≈ 20.6 µM)	4 µg/mL (≈ 10.3 µM)	Concentration [13]: 32 µg/mL
COc1ccc(OCc2cccc(C(=O)O)c2)cc1Cc1cnc(N)nc1N	–	> 32 µg/mL	> 32 µg/mL	> 32 µg/mL	> 32 µg/mL	> 32 µg/mL	–	–	–
COc1ccc(C#Cc2ccc(C(=O)O)cc2)cc1Cc1cnc(N)nc1N	3.7 nM	> 64 µg/mL	> 64 µg/mL	> 64 µg/mL	> 64 µg/mL	> 64 µg/mL	–	–	IC50 [1]: 8200 nM; IC50 [2]: 340 nM; IC50 [3]: 1300 nM
CCCCCCCOc1ccc(OC)c(Cc2cnc(N)nc2N)c1	–	4 µg/mL (≈ 11.6 µM)	8 µg/mL (≈ 23.2 µM)	8 µg/mL (≈ 23.2 µM)	8 µg/mL (≈ 23.2 µM)	8 µg/mL (≈ 23.2 µM)	8 µg/mL (≈ 23.2 µM)	8 µg/mL (≈ 23.2 µM)	Concentration [14]: 16 µg/mL
COc1ccc(OCCCC(=O)O)cc1Cc1cnc(N)nc1N	–	16 µg/mL (≈ 48.1 µM)	32 µg/mL (≈ 96.3 µM)	16 µg/mL (≈ 48.1 µM)	32 µg/mL (≈ 96.3 µM)	16 µg/mL (≈ 48.1 µM)	–	–	–
Cc1ccc(Cl)cc1Cc1cnc2nc(N)nc(N)c2c1C	0.19 nM	–	–	–	–	–	–	–	–
COc1ccc(CCCCC(=O)O)cc1Cc1cnc(N)nc1N	–	> 32 µg/mL	–	> 32 µg/mL	> 32 µg/mL	> 32 µg/mL	–	–	MIC [16]: > 32 µg/mL
COc1cc(Cc2cnc(N)nc2N)cc(OC)c1OC [TRIMETHOPRIM]	–	–	–	–	–	–	–	–	MIC [17]: > 64 µg/mL
